From patent US9439976B2, “Compositions and methods for using cathepsin E cleavable substrates” (The Methodist Hospital System, priority 2013, dated 2016)
Where a SMILES comes first, the peptide text is derived from it. The star is where a group is joined. X1 = O=C(O)CCC(=O)CN*

Experiments:
[1] = tested on: MPanc96-CTSE cells; type: cell-based; settings: human
Procedure: To determine the number of viable cells after light treatment, a homogeneous colorimetric method, the MTS Cell cytotoxicity assay (Cell Titer 96® Aqueous, Promega, Madison, Wis.) was used. MPanc96-CTSE and MPanc96-FG30 (2×10^4) cells were incubated with various concentrations (0.1, 0.5, 1, and 5 μM) of the 5-ALA prodrug for 30 minutes, followed by treatment with a range of light doses (2.5, 5, 10, and 15 J/cm^2) and incubated overnight at 37° C. and 5% CO2 in 96-well plates. Cells treated only with light or the 5-ALA prodrug were used as negative controls. […] The formation of colored formazan was measured directly in 96-well assay plates at 490 nm absorbance without additional processing. […] After PDT, MPanc96-CTSE cells were washed with PBS buffer, treated with 1 μL YO-PRO-1 and PI stock solution per milliliter medium and incubated on ice for 25 minutes, followed by fluorescence imaging using an inverted epifluorescence microscope. […]
To quantitate cell viability upon photodynamic treatment with the 5-ALA prodrug, PDAC cells were subjected to homogeneous, colorimetric MTS cytotoxicity assay. […] After incubating PDAC cells with the tetrazolium compound, living PDAC cells in culture were quantified directly by measuring the absorbance of the produced formazan product at 490 nm.

[2] = tested on: MPanc96-CTSE cells; experiment: Cellular release of 5-ALA, PpIX fluorescence imaging, Cath E-high cells; type: cell-based, human; settings: unfixed MPanc96-CTSE cells, 0.5 μM, 37° C.
Procedure: Mpanc96-CTSE and Mpanc96-FG30 cells (1.2×10^4) were treated in 96-well plates with various concentrations (0.1, 0.5, 1, and 5 μM in 100 μL) of 5-ALA prodrug, incubated for 30 minutes at 37° C., and washed several times with PBS. Fluorescence images of the cells were acquired using an inverted epifluorescence microscope and a TRITC (tetramethyl rhodamine isothiocyanate) filter (λex=557 nm and λem=576 nm). Free 5-ALA and untreated cells were included as controls. The possible light damage done in the absence of photosensitizer was evaluated by irradiating Cath E-positive Mpanc96-CTSE cells with various doses (2.5, 5, 10, 15, and 18 J/cm^2) of light using a diode laser system (652 nm; B&W TEK, Newark, Del.). Phototoxicity of the 5-ALA prodrug was assessed by incubating Mpanc96-CTSE and Mpanc96-FG30 cells in 96-well plates with 0.1 μM 5-ALA prodrug for 30 minutes at 37° C. The cells were washed several times with PBS, the medium was replaced with growth medium, and the cells were treated with a single dose of 10 J/cm2. After PDT, the treated cells and controls were incubated overnight followed by imaging to detect changes in cell morphology.

[3] = tested on: PDAC (p53 conditional deletion/LSL-KrasG12D/Pdx1-Cre); experiment: In vivo photodynamic therapy, TUNEL staining of PDAC pancreas in genetically engineered mice; design: species or system mouse; settings: mice with PDAC, 1 mg 5-ALA equivalent/kg i.v., 10 J/cm^2 light at 652 nm 1 hour after injection, tissue 24 hours later
Procedure: All animal studies were performed in compliance with the approved animal protocols and guidelines of Institutional Animal Care and Use Committee of University of Texas MD Anderson Cancer Center. […] Littermates without PDAC served as controls. LSL-KRasG12D, p53-floxed, and Pdx-1-Cre genetic mice were obtained from the Mouse Models for Human Cancer Consortium Repository (Rockville, Md.). Mice were divided into three groups of five transgenic mice with PDAC tumors and three normal littermate controls. Mice were injected with a single dose of saline, free 5-ALA, or the 5-ALA prodrug (1 mg 5-ALA equivalent/kg, 50 μL) intravenously through the tail vein using a 30 gauge needle. Mice were incubated for 60 minutes in a full metabolically active environment and anesthetized by intraperitoneal injection of sodium pentobarbital, at a dose of 50-90 mg/kg diluted to 6 mg/ml. The pancreas was exposed through a left abdominal incision (1 cm, laparotomy) and treated with a 10-J/cm^2 dose of light using a diode laser (652 nm) and incidence fluence rate of 50 mW/cm^2 for 3.5 minutes. After PDT, the pancreas was carefully returned to the peritoneal cavity and the abdomen was closed. One day after light treatment, animals were sacrificed and the pancreases were harvested for subsequent evaluation. […]

For `CC(C)C[C@H](NC(=O)[C@H](CO)NC(=O)[C@H](Cc1ccccc1)NC(=O)CNC(=O)[C@H](C)NC(=O)[C@H](CCC(N)=O)NC(=O)[C@@H](N)CCCNC(=N)N)C(=O)NCC(=O)CCC(=O)O` [5-ALA prodrug, H-Arg-Gln-Ala-Gly-Phe-Ser-Leu-5-ALA-OH] (H-RQAGFSL-X1), the “Cell viability (MTS)” value [1] was “approximately 20%”.

`NCC(=O)CCC(=O)O` [free 5-ALA, 5-aminolevulinic acid] was tested, and the “PpIX fluorescence signal in cells (TRITC channel)” value [2] was “comparable” and the “Apoptosis in PDAC tissue sections (TUNEL)” value [3] was “multiple apoptotic cells”.
